pIC50: −log10 of the molar value. One block for each compound: values may come before it. Activity calls are given as the source filed them. The calls are words filed in the database; no cut-off is given here. Where a SMILES comes first, the peptide text is derived from it. [ ]: non-standard residue; d: D form.
How the values were obtained:
[1] = target: T1, C-X-C chemokine receptor type 4 (Homo sapiens, UniProt P61073); assay: Displacement of 12G5 mAb from CXCR4 (unknown origin) expressed in CHO cells incubated for 40 mins by spectrophotometric method; assay type: cell-based
T1 sequence (P61073 whole entry): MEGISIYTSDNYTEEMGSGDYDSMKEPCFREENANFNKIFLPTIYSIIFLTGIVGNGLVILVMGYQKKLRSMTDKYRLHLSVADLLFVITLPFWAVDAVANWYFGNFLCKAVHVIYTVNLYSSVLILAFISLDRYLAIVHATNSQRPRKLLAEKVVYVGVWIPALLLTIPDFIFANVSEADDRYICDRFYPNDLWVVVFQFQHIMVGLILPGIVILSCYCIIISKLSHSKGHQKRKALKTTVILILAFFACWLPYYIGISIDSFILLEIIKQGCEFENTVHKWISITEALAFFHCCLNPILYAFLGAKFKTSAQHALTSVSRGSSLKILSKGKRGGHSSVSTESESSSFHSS

[2] = system: Human immunodeficiency virus 1; assay: Antiviral activity against HIV-1 R5 Bal-6 infected in human PBMC assessed as inhibition of viral replication by measuring reduction in p24 antigen level at 0.1 to 10 uM measured after 5 days by ELISA; assay type: functional, organism-based; details: dose 0.1-10 µM, time 5.0 day
[3] = Cytotoxicity against human PBMC assessed as reduction in cell viability at 0.016 to 10 uM incubated for 5 days by CellTiter-Blue assay; assay type: toxicity, cell-based; details: 120 h, dose 0.016-10 µM, time 5 day
[4] = system: Human immunodeficiency virus 1; assay: Antiviral activity against HIV-1 X4 NL4-3 infected in human PBMC assessed as inhibition of viral replication by measuring reduction in p24 antigen level at 10 uM measured after 5 days by ELISA; assay type: functional, organism-based; details: time 5.0 day
[5] = system: C-X-C chemokine receptor type 4 (Homo sapiens), P61073 [Y45A]; assay: Displacement of 12G5 mAb from CXCR4 Y45A mutant (unknown origin) expressed in CHO cells at 500 nM incubated for 40 mins by spectrophotometric method; assay type: cell-based; details: filed as antagonist
Sequence of C-X-C chemokine receptor type 4 (Homo sapiens), P61073 [Y45A] (P61073 whole entry Y45A): as the sequence (P61073 whole entry) above, with Y45A counted along it

[6] = system: C-X-C chemokine receptor type 4 (Homo sapiens), P61073 [W161A]; assay: Displacement of 12G5 mAb from CXCR4 W161A mutant (unknown origin) expressed in CHO cells at 500 nM incubated for 40 mins by spectrophotometric method; assay type: cell-based
Sequence of C-X-C chemokine receptor type 4 (Homo sapiens), P61073 [W161A] (P61073 whole entry W161A): as the sequence (P61073 whole entry) above, with W161A counted along it

[7] = target: T1, C-X-C chemokine receptor type 4; assay: Antagonist activity against CXCR4 in human SUP-T1 cells assessed as inhibition of SDF-1alpha-induced intracellular calcium mobilization by Fluo-4AM dye based fluorescence analysis; assay type: cell-based; details: filed as antagonist, dose 0.01-10 µM
[8] = target: T1, C-X-C chemokine receptor type 4; assay: Antagonist activity against CXCR4 in human SUP-T1 cells assessed as inhibition of SDF-1alpha-induced intracellular calcium mobilization at 10 uM by Fluo-4AM dye based fluorescence analysis; assay type: cell-based; details: filed as antagonist
[9] = target: T1, C-X-C chemokine receptor type 4; assay: Antagonist activity against EGFP-tagged CXCR4 (unknown origin) transfected in CHO cells assessed as inhibition of SDF-1alpha-induced receptor internalization at 0.01 to 10 uM preincubated for 10 mins followed by SDF-1alpha addition by confocal microscopy; assay type: cell-based; details: filed as antagonist, dose 0.01-10 µM
[10] = system: C-X-C chemokine receptor type 4 (Homo sapiens), P61073 [Y116A]; assay: Displacement of 12G5 mAb from CXCR4 Y116A mutant (unknown origin) expressed in CHO cells at 500 nM incubated for 40 mins by spectrophotometric method; assay type: cell-based
Sequence of C-X-C chemokine receptor type 4 (Homo sapiens), P61073 [Y116A] (P61073 whole entry Y116A): as the sequence (P61073 whole entry) above, with Y116A counted along it

[11] = system: C-X-C chemokine receptor type 4 (Homo sapiens), P61073 [E288Q]; assay: Displacement of 12G5 mAb from CXCR4 E288Q mutant (unknown origin) expressed in CHO cells at 500 nM incubated for 40 mins by spectrophotometric method; assay type: cell-based; details: filed as antagonist
Sequence of C-X-C chemokine receptor type 4 (Homo sapiens), P61073 [E288Q] (P61073 whole entry E288Q): as the sequence (P61073 whole entry) above, with E288Q counted along it

[12] = system: C-X-C chemokine receptor type 4 (Homo sapiens), P61073 [D97A]; assay: Displacement of 12G5 mAb from CXCR4 D97A mutant (unknown origin) expressed in CHO cells at 500 nM incubated for 40 mins by spectrophotometric method; assay type: cell-based
Sequence of C-X-C chemokine receptor type 4 (Homo sapiens), P61073 [D97A] (P61073 whole entry D97A): as the sequence (P61073 whole entry) above, with D97A counted along it

[13] = system: C-X-C chemokine receptor type 4 (Homo sapiens), P61073 [F87A]; assay: Displacement of 12G5 mAb from CXCR4 F87A mutant (unknown origin) expressed in CHO cells at 500 nM incubated for 40 mins by spectrophotometric method; assay type: cell-based
Sequence of C-X-C chemokine receptor type 4 (Homo sapiens), P61073 [F87A] (P61073 whole entry F87A): as the sequence (P61073 whole entry) above, with F87A counted along it

[14] = target: C-C chemokine receptor type 5 (Homo sapiens) (UniProt P51681); assay: Displacement of C-45523 from CCR5 (unknown origin) expressed in CHO cells at 50 uM incubated for 40 mins by competitive binding assay based spectrophotometric method; assay type: cell-based
Sequence of C-C chemokine receptor type 5 (Homo sapiens) (P51681 whole entry, looked up): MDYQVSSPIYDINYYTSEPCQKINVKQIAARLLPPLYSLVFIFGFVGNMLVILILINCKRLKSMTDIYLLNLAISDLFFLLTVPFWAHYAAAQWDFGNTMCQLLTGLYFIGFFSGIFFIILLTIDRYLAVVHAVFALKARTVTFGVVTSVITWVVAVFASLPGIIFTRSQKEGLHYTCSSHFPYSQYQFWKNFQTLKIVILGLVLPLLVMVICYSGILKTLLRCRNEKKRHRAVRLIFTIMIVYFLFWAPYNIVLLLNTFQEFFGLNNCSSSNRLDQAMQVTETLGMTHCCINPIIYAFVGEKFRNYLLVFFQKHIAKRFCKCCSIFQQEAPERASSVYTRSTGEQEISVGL

[15] = target: T1, C-X-C chemokine receptor type 4; assay: Antagonist activity against CXCR4 in human SUP-T1 cells assessed as inhibition of SDF-1alpha-induced cell migration preincubated with cells for 30 mins followed by incubation with SDF-1alpha for 3 hrs by CellTiter-96 reagent based transwell assay; details: filed as antagonist, time 210.0 min
[16] = system: C-X-C chemokine receptor type 4 (Homo sapiens), P61073 [T117A]; assay: Displacement of 12G5 mAb from CXCR4 T117A mutant (unknown origin) expressed in CHO cells at 500 nM incubated for 40 mins by spectrophotometric method; assay type: cell-based; details: filed as antagonist
Sequence of C-X-C chemokine receptor type 4 (Homo sapiens), P61073 [T117A] (P61073 whole entry T117A): as the sequence (P61073 whole entry) above, with T117A counted along it

[17] = system: C-X-C chemokine receptor type 4 (Homo sapiens), P61073 [D262N]; assay: Displacement of 12G5 mAb from CXCR4 D262N mutant (unknown origin) expressed in CHO cells at 500 nM incubated for 40 mins by spectrophotometric method; assay type: cell-based; details: filed as antagonist
Sequence of C-X-C chemokine receptor type 4 (Homo sapiens), P61073 [D262N] (P61073 whole entry D262N): as the sequence (P61073 whole entry) above, with D262N counted along it

[18] = system: C-X-C chemokine receptor type 4 (Homo sapiens), P61073 [W195A]; assay: Displacement of 12G5 mAb from CXCR4 W195A mutant (unknown origin) expressed in CHO cells at 500 nM incubated for 40 mins by spectrophotometric method; assay type: cell-based
Sequence of C-X-C chemokine receptor type 4 (Homo sapiens), P61073 [W195A] (P61073 whole entry W195A): as the sequence (P61073 whole entry) above, with W195A counted along it

[19] = system: C-X-C chemokine receptor type 4 (Homo sapiens), P61073 [E288D]; assay: Displacement of 12G5 mAb from CXCR4 E288D mutant (unknown origin) expressed in CHO cells at 500 nM incubated for 40 mins by spectrophotometric method; assay type: cell-based
Sequence of C-X-C chemokine receptor type 4 (Homo sapiens), P61073 [E288D] (P61073 whole entry E288D): as the sequence (P61073 whole entry) above, with E288D counted along it

[20] = target: T1, C-X-C chemokine receptor type 4; assay: Antagonist activity against CXCR4 in human SUP-T1 cells assessed as inhibition of SDF-1alpha-induced cell migration at 10 uM preincubated with cells for 30 mins followed by incubation with SDF-1alpha for 3 hrs by CellTiter-96 reagent based transwell assay; details: filed as antagonist, time 210.0 min
[21] = target: T1, C-X-C chemokine receptor type 4; assay: Antagonist activity against EGFP-tagged CXCR4 (unknown origin) transfected in CHO cells assessed as inhibition of SDF-1alpha-induced receptor internalization at 10 uM preincubated for 10 mins followed by SDF-1alpha addition by confocal microscopy; assay type: cell-based; details: filed as antagonist
[22] = system: C-X-C chemokine receptor type 4 (Homo sapiens), P61073 [D193A]; assay: Displacement of 12G5 mAb from CXCR4 D193A mutant (unknown origin) expressed in CHO cells at 500 nM incubated for 40 mins by spectrophotometric method; assay type: cell-based
Sequence of C-X-C chemokine receptor type 4 (Homo sapiens), P61073 [D193A] (P61073 whole entry D193A): as the sequence (P61073 whole entry) above, with D193A counted along it

[23] = system: C-X-C chemokine receptor type 4 (Homo sapiens), P61073 [N119A]; assay: Displacement of 12G5 mAb from CXCR4 N119A mutant (unknown origin) expressed in CHO cells at 500 nM incubated for 40 mins by spectrophotometric method; assay type: cell-based
Sequence of C-X-C chemokine receptor type 4 (Homo sapiens), P61073 [N119A] (P61073 whole entry N119A): as the sequence (P61073 whole entry) above, with N119A counted along it

[24] = system: C-X-C chemokine receptor type 4 (Homo sapiens), P61073 [H113A]; assay: Displacement of 12G5 mAb from CXCR4 H113A mutant (unknown origin) expressed in CHO cells at 500 nM incubated for 40 mins by spectrophotometric method; assay type: cell-based
Sequence of C-X-C chemokine receptor type 4 (Homo sapiens), P61073 [H113A] (P61073 whole entry H113A): as the sequence (P61073 whole entry) above, with H113A counted along it

[25] = system: C-X-C chemokine receptor type 4 (Homo sapiens), P61073 [E288A]; assay: Displacement of 12G5 mAb from CXCR4 E288A mutant (unknown origin) expressed in CHO cells at 500 nM incubated for 40 mins by spectrophotometric method; assay type: cell-based
Sequence of C-X-C chemokine receptor type 4 (Homo sapiens), P61073 [E288A] (P61073 whole entry E288A): as the sequence (P61073 whole entry) above, with E288A counted along it

[26] = system: C-X-C chemokine receptor type 4 (Homo sapiens), P61073 [W94A]; assay: Displacement of 12G5 mAb from CXCR4 W94A mutant (unknown origin) expressed in CHO cells at 500 nM incubated for 40 mins by spectrophotometric method; assay type: cell-based
Sequence of C-X-C chemokine receptor type 4 (Homo sapiens), P61073 [W94A] (P61073 whole entry W94A): as the sequence (P61073 whole entry) above, with W94A counted along it

SMILES: CC(C)C[C@@H](N)C(=O)NCC(=O)N[C@H](C)C(=O)N[C@H](CO)C(=O)N[C@H](Cc1c[nH]c2ccccc12)C(=O)N[C@H](Cc1cnc[nH]1)C(=O)N[C@H](CCCNC(=N)N)C(=O)N1CCC[C@@H]1C(=O)N[C@H](CC(=O)O)C(=O)N[C@H](CCCCN)C(=O)N[C@H](CCCCN)C(=O)N[C@H](CCCNC(=N)N)C(N)=O (H-[dL]G[dA][dS][dW][dH][dR][dP][dD][dK][dK][dR]-NH2)
- pIC50 [1]: 6.27

- pIC50 [1]: 7.59
SMILES: CC(C)C[C@@H](N)C(=O)NCC(=O)N[C@H](C)C(=O)N[C@H](CO)C(=O)N[C@H](Cc1c[nH]c2ccccc12)C(=O)N[C@H](Cc1cnc[nH]1)C(=O)N[C@H](CCCNC(=N)N)C(=O)N1CCC[C@@H]1C(=O)N[C@H](CC(=O)O)C(=O)N[C@H](CCCCN)C(=O)N[C@H](CCCCN)C(=O)N[C@H](CCCNC(=N)N)C(=O)N(CCCCCC(=O)O)[C@@H](CCCCN[C@H](CS)C(=O)N[C@H](C(=O)N[C@@H](CCCNC(=N)N)C(=O)N1CCC[C@H]1C(=O)N[C@@H](CC(N)=O)C(=O)N[C@@H](CC(N)=O)C(=O)N[C@@H](CC(N)=O)C(=O)N[C@H](C(=O)N[C@@H](CCCCN)C(=O)N[C@@H](CCCNC(=N)N)C(N)=O)[C@H](C)O)[C@H](C)O)C(N)=O
- Activity [2]: inactive
- Activity [3]: Non-Toxic
- Activity [4]: Active

SMILES: CC(C)C[C@@H](N)C(=O)NCC(=O)N[C@H](C)C(=O)N[C@H](CO)C(=O)N[C@H](Cc1c[nH]c2ccccc12)C(=O)N[C@H](Cc1cnc[nH]1)C(=O)N[C@H](CCCNC(=N)N)C(=O)N1CCC[C@@H]1C(=O)N[C@H](CC(=O)O)C(=O)N[C@H](CCCCN)C(=O)N[C@H](CCCCN)C(=O)N[C@H](CCCNC(=N)N)C(=O)N(CCCCCC(=O)O)[C@@H](CCCCN)C(=O)N[C@@H](CCCNC(=N)N)C(=O)N[C@@H](CCCCN)C(=O)N[C@@H](CCC(N)=O)C(=O)N[C@@H](CCCNC(=N)N)C(=O)NCC(=O)N1CCC[C@H]1C(=O)NCC(=O)N[C@@H](CCCNC(=N)N)C(=O)N[C@@H](C)C(=O)N[C@@H](Cc1ccccc1)C(N)=O
- inhibition [5]: Active
- inhibition [6]: inactive
- inhibition [7]: Dose-Dependent Effect
- inhibition [8]: 100%
- inhibition [9]: Active
- inhibition [10]: inactive
- Activity [2]: inactive
- inhibition [11]: Active
- Activity [3]: Non-Toxic
- inhibition [12]: inactive
- inhibition [13]: inactive
- Activity [4]: Active
- inhibition [14]: 17.2%
- inhibition [15]: Dose-Dependent Effect
- inhibition [16]: Active
- inhibition [17]: Active
- inhibition [18]: inactive
- inhibition [19]: inactive
- inhibition [20]: 100%
- inhibition [21]: 100%
- inhibition [22]: inactive
- inhibition [23]: inactive
- inhibition [24]: inactive
- inhibition [25]: inactive
- inhibition [26]: inactive

SMILES: CC(C)C[C@@H](N)C(=O)NCC(=O)N[C@H](C)C(=O)N[C@H](CO)C(=O)N[C@H](Cc1c[nH]c2ccccc12)C(=O)N[C@H](Cc1cnc[nH]1)C(=O)N[C@H](CCCNC(=N)N)C(=O)N1CCC[C@@H]1C(=O)N[C@H](CC(=O)O)C(=O)N[C@H](CCCCN)C(=O)N[C@H](CCCCN)C(=O)N[C@H](CCCNC(=N)N)C(=O)N(CCCCCC(=O)O)[C@@H](CCCCN)C(=O)N[C@@H](CCCNC(=N)N)C(=O)N[C@@H](CCCCN)C(=O)N[C@H](CS)C(=O)N[C@H](C(=O)N[C@@H](CCCNC(=N)N)C(=O)N1CCC[C@H]1C(=O)N[C@@H](CC(N)=O)C(=O)N[C@@H](CC(N)=O)C(=O)N[C@@H](CC(N)=O)C(=O)N[C@H](C(N)=O)[C@H](C)O)[C@H](C)O
- inhibition [14]: 10.4%
- pIC50 [1]: 7.32

Reference: ChEMBL document CHEMBL5247608, “HIV-1 gp120-CXCR4 recognition probed with synthetic nanomolar affinity D-peptides containing fragments of gp120 V3 loop” (Eur J Med Chem, 2022)
